Laboratory results reported in the METLIN SMRT retention time set (Domingo-Almenara et al. 2019).

Experiment: gradient 5% acetonitrile 3 min, to 50% in 2 min, to 85% in 15 min, held 3 min, 100 µL/min
Conditions: column: Zorbax Extend-C18 2.1 x 50 mm; eluents: water / acetonitrile, 0.1% formic acid
Method in brief: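 Standards, all pure, were combined into mixtures of ~100 molecules and run at 100 μL/min on a Zorbax Extend-C18 column (2.1 × 50 mm, 1.8 μm) with water and acetonitrile, each containing 0.1% formic acid. A coupled quadrupole time-of-flight mass spectrometer operated in positive and negative ionization mode. Retention time values come from computationally picked adduct peaks, each inspected manually.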

RP-LC retention time | SMILES
753 s | Cc1cc(C)c2c(-n3cccc3)nn(CC(=O)NCC3CCCO3)c2n1 (stereo unspecified)
655 s | COc1ccc(CC(=O)Nc2nnc(-c3ccsc3)o2)cc1OC
1130 s | Cc1ccc(C)c(N2CCN(S(=O)(=O)c3ccc(-c4nnc(C5CC5)o4)o3)CC2)c1
1290 s | Cc1oc(-c2ccc(OC(C)C)cc2)nc1CN(c1ccccc1)S(=O)(=O)c1cccs1
1090 s | COc1ccc2cccc(NC(=O)c3c(F)cccc3Cl)c2n1
592 s | O=C(Cn1c(-c2ccc(F)cc2)nc2ccccc21)N1CCOCC1
597 s | O=C(NCc1ccc(N2CCOCC2)cc1)c1cn2c(n1)COCC2
578 s | CN(C)C(CNC(=O)c1ccc(Br)o1)c1cn(C)c2ccccc12 (stereo unspecified)
721 s | O=C1NC2(CCN(C(=O)Nc3ccccc3)CC2)Oc2ccccc21
856 s | O=C(Cn1ccn2nc(-c3ccccc3)c(CO)c2c1=O)Nc1cccc(Cl)c1
782 s | CCOc1ccc(CC(=O)N2C[C@@H]3C[C@H]2C[C@@H]3NC(=O)c2cccs2)cc1
924 s | CCCC(=O)N1CCc2c([nH]c3ccccc23)C12C(=O)Nc1ccc(Br)cc12 (stereo unspecified)
1200 s | O=C1CC(c2noc(-c3ccc(-c4ccccc4)cc3)n2)CN1c1ccc(F)cc1 (stereo unspecified)
589 s | O=C(c1c[nH]c2ncccc12)N1CCCC1
830 s | CC(C)NC(=O)c1ccc(OCC2CCCN(C(=O)c3ccccc3F)C2)cc1 (stereo unspecified)
677 s | Cc1cc(C(=O)N2CCC3(CC2)CC(C)(O)CCO3)c(C)o1 (stereo unspecified)
694 s | CC(C)n1c(CCNC(=O)c2cc(F)cc(F)c2)nc2cccnc21
973 s | CCCc1noc(-c2ccnc(-n3cnc(C(=O)NC4CCCCC4)c3)c2)n1
1050 s | Clc1ccc(-c2noc(Cc3nnc(-c4ccccc4)o3)n2)cc1
722 s | Cc1csc(-c2cn(CC(=O)Nc3ccc(C)c(C)c3)cn2)n1
592 s | CN(C)c1ccc2c(c1)CN(Cc1ccccc1C#N)CCO2
858 s | CCn1cc(-c2nc(CC(=O)Nc3ccc(OC)cc3)cs2)c2cccnc21

RP-LC retention time | SMILES
937 s | CCn1ncn2cc(S(=O)(=O)Nc3ccc(C)cc3C)cc2c1=O
855 s | COCCN1C(=O)c2ccccc2C(C(=O)NCc2ccccc2OC)C12CCCC2 (stereo unspecified)
998 s | COc1ccc(OC)c(S(=O)(=O)N2CCc3nc(-c4ccccc4)ncc3C2)c1
1070 s | CCc1cccc(C)c1NC(=O)Cn1cnc2c(sc3nc(-c4ccccc4)ccc32)c1=O
531 s | CN(C)[C@@H]1CN(C(=O)c2ccc(F)c(F)c2)C[C@H]1CO
698 s | O=C(c1ccc(C(F)(F)F)cc1)N1CCN(c2nnc3ccccn23)CC1
697 s | COc1cc(NC(=O)Cn2nc3c4cc(F)ccc4ncn3c2=O)cc(OC)c1
864 s | CCn1nccc1-c1csc(S(=O)(=O)N2CCCC2)c1
680 s | CCn1cc(C)c(C(=O)O)c1CC(=O)Nc1ccc(C)cn1
1250 s | CN(C)c1ccc(-c2noc(-c3nc(-c4ccccc4F)no3)n2)cc1
845 s | CC(C)c1cc(C(=O)Nc2ccccc2)nn1C1CCS(=O)(=O)C1 (stereo unspecified)
1040 s | O=C(O)CCc1ccc(NCc2cccc(Oc3ccccc3)c2)cc1
722 s | COc1ccc(OC)c(CNC(=O)C2CCCN(c3nnc4c(Cl)cccn34)C2)c1 (stereo unspecified)
651 s | O=C(CN1C(=O)c2cccc3cccc(c23)C1=O)NCC1CCCO1 (stereo unspecified)
630 s | Cc1cc(C)c(C)c(S(=O)(=O)Nc2ccc(C(=O)NCc3ccccn3)cc2)c1C
679 s | CC(C)CCNC(=O)Cc1cn(C)c2ncccc12
804 s | Cc1ccc(CC(=O)N2CCC3(CC2)NC(=O)c2cc(F)ccc2N3C)cc1
1050 s | CN(Cc1ccccc1)C(=O)c1cn(-c2cc(-c3nc(C(C)(C)C)no3)ccn2)cn1
743 s | CCOCCCNC(=O)C1CCCN(C(=O)c2cc(C)cc(C)c2)C1 (stereo unspecified)
838 s | CC(C)(C)C(=O)Nc1ccc(NC(=O)C(C)(C)C)cc1
594 s | Cn1nc(-c2nc(-c3ccccc3F)no2)c2c1CCN(C(=O)NC(C)(C)C)C2
657 s | CCCNc1cc(N2CCC(CCC(=O)NCc3ccc(OC)cc3)CC2)ncn1

RP-LC retention time | SMILES
890 s | CCOC(=O)c1c(S(=O)(=O)N2CCC(C(=O)Nc3ccc(F)c(F)c3)CC2)c(C)n(C)c1C
537 s | Cc1nnc(NC(=O)CN2CC(c3nc(C4CC4)no3)C2)s1
570 s | CN(C)CC1CCN(C(=O)NC2CCCCC2)CC1
790 s | Cc1noc2nc(CCC(=O)NC(C)c3ccccc3)nc(N3CCCC3)c12 (stereo unspecified)
1120 s | O=C(c1ccsc1)N1CCc2cc(-c3csc(C4CC4)n3)ccc21
710 s | O=C(Nc1cc(-c2cccnc2)no1)c1ccc2c(c1)OCO2
630 s | COc1ccc(OC)c(S(=O)(=O)N2CCC(n3c(C)cnc3C)CC2)c1
557 s | COc1ccc(OC)c(COCC(O)CN2CCN(Cc3ccccc3)CC2)c1 (stereo unspecified)
577 s | COc1ccc2[nH]c(=O)c(CCC(=O)NCc3nc4ccccc4n3C)cc2c1
979 s | O=C(Cn1nc(N2CCSCC2)c2ccccc2c1=O)Nc1ccccc1C(F)(F)F
1090 s | Cc1ccc(C(=O)Nc2nc(-c3ccccc3)cs2)cc1[N+](=O)[O-]
976 s | Cc1nc(-c2ccc3c(c2)CCN3C(=O)COc2ccc(Cl)cc2)no1
816 s | CCCNC(=O)c1cc2sccc2n1C
859 s | COC(=O)c1[nH]c(C)c(C(=O)C(C)N(CC(C)C)C(=O)c2ccc(OC)cc2)c1C (stereo unspecified)
1260 s | CCOc1ccc(-c2noc(CN3C(=O)COc4cc(C(C)(C)C)ccc43)n2)cc1
575 s | CN1CCN(CCCNC(=O)c2ccc3c(c2)N(C)C(=O)C2CCCCN32)CC1 (stereo unspecified)
968 s | COc1ccc(C)cc1NC(=O)N1CCCC(C)(C(=O)NCc2ccc(C)cc2)C1 (stereo unspecified)
1050 s | O=C(CSc1nnc(-c2cccc(Cl)c2)o1)Nc1ccc(C(F)(F)F)cc1
1170 s | Cc1occc1C(=O)Nc1nc(-c2ccc3ccccc3c2)cs1
896 s | CCCN1C(=O)COc2ccc(-c3csc(NC(=O)C4CCCO4)n3)cc21 (stereo unspecified)
840 s | O=[N+]([O-])c1ccccc1S(=O)(=O)c1ccccc1[N+](=O)[O-]
783 s | CN(C)c1nccnc1OC1CCN(C(=O)c2ccc(Cl)cc2)C1 (stereo unspecified)

RP-LC retention time | SMILES
616 s | CC(C)NC(=O)c1ccc2c(c1)CC(=O)N2C
653 s | c1ccc2oc(SCc3cn4ccsc4n3)nc2c1
845 s | CCc1ccc(NC(=O)N2CCCC2c2cc(C)on2)cc1 (stereo unspecified)
813 s | COCCC(=O)NC1CCN(C2=NS(=O)(=O)C(c3ccc(C(C)C)cc3)=C2C)CC1
779 s | Cn1cc(CCNS(=O)(=O)c2ccc(Br)s2)c2cccnc21
662 s | CCc1ccc2c(c1)-c1ccccc1S(=O)(=O)N2CC(=O)N1CCN(C)CC1
863 s | CCn1ncn2cc(S(=O)(=O)Nc3ccccc3C)cc2c1=O
993 s | CSc1ccc(-c2nc3ccc(Cl)cn3c2Nc2ccc(Cl)cc2)cc1
746 s | Cc1nc(Nc2ncc3c(n2)CC(c2ccc(F)cc2)CC3=O)nc2c(C)cccc12 (stereo unspecified)
989 s | Cc1ccc(S(=O)(=O)N2CCC(C(=O)NCc3csc(-c4ccccc4)n3)CC2)cc1C
830 s | CC1=C(c2ccc(F)cc2)S(=O)(=O)N=C1N1CCCN(C(=O)c2sccc2C)CC1
753 s | CCOc1ccc(NC(=O)c2oc3cc(C)ccc3c2C)c2cccnc12
597 s | CCN1CCc2ncnc(SCC(=O)Nc3ccc(Cl)cc3C(F)(F)F)c2C1
668 s | O=[N+]([O-])c1c(NCCCO)cc(NCc2ccc3c(c2)OCO3)c2nonc12
999 s | N#C/C(=C\c1cccnc1)c1ccc(Br)cc1
775 s | CCc1noc(NC(C)=O)c1-c1ccc(OC)c(S(=O)(=O)Nc2ccc(OC)c(Cl)c2)c1
744 s | O=C(NC1CCN(Cc2ccccc2)CC1)C1CCCN(c2ncc(-c3ccc(F)cc3)cn2)C1 (stereo unspecified)
740 s | FC(F)(F)c1cccc(-c2cncc(N3CCN(c4ccccn4)CC3)n2)c1
738 s | Cc1cc2c(N3CCCC(C(=O)NCc4ccccc4C(F)(F)F)C3)nccc2s1 (stereo unspecified)
708 s | FC1(c2nc(Cc3ccccc3)no2)CCN(Cc2ccsc2)CC1
627 s | Cn1ccnc1C(=O)N1CCCCCCNC(=O)[C@@H]2CCCC[C@@H]21
774 s | COCCNC(=O)C1CCN(c2nc3ccc(-c4ccsc4)nc3s2)CC1

SMILES | RP-LC retention time
CCn1cc(C(=O)Nc2cccc(C)c2C)c2cccnc21 | 854 s
Cc1cccc(NC(=O)N2[C@H]3CC[C@@H]2c2cnc(-c4ccccc4)nc2C3)c1 | 982 s
O=C(CN1CC=C(c2cnn(-c3ccccc3)c2)CC1)NCC1CCCO1 (stereo unspecified) | 612 s
